# Results from US9302999B2, “Substituted triazoles as herbicides” (E. I. DU PONT DE NEMOURS AND COMPANY, priority 2012, dated 2016).
# Legend:
# Type in all cases: in vivo
# [1] = system: barnyardgrass (Echinochloa crus-galli); experiment: Test A pre-/postemergence: barnyardgrass
# How it was run: (§1)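 Soil medium was loam blended with sand; treatments pre- and postemergence were applied concurrently, postemergence at one- to two-leaf stage. Approximately ten days in greenhouse preceded visual comparison with untreated controls, scored 0 (no effect) to 100 (complete control).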
# [2] = system: crabgrass, large (large crabgrass, Digitaria sanguinalis); experiment: Test A pre-/postemergence: crabgrass, large
# How it was run: as §1
# [3] = system: foxtail, giant (giant foxtail, Setaria faberii); experiment: Test A pre-/postemergence: foxtail, giant
# How it was run: as §1
# [4] = system: morningglory (Ipomoea spp.); experiment: Test A pre-/postemergence: morningglory
# How it was run: as §1
# [5] = system: pigweed (Amaranthus retroflexus); experiment: Test A pre-/postemergence: pigweed
# How it was run: as §1
# [6] = system: velvetleaf (Abutilon theophrasti); experiment: Test A pre-/postemergence: velvetleaf
# How it was run: as §1
# [7] = system: wheat (Triticum aestivum); experiment: Test A pre-/postemergence: wheat
# How it was run: as §1
# corn (Zea mays) = experiment: Test A pre-/postemergence: corn
# How it was run: as §1
# rice (Oryza sativa) = experiment: Test C flooded paddy test: rice; conditions: scale 0 to 100 (0 no effect, 100 complete control)
# How it was run: (§2)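 2-leaf stage plants; pots flooded 3 cm above soil; compound applied into paddy water, depth maintained. Greenhouse 13–15 d. Visual rating vs controls, 0–100 (0 = no effect, 100 = complete control); dash = no result.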
# [8] = system: sedge, umbrella (small-flower umbrella sedge, Cyperus difformis); experiment: Test C flooded paddy test: sedge, umbrella; conditions: scale 0 to 100 (0 no effect, 100 complete control)
# How it was run: as §2
# [9] = system: ducksalad (Heteranthera limosa); experiment: Test C flooded paddy test: ducksalad; conditions: scale 0 to 100 (0 no effect, 100 complete control)
# How it was run: as §2
# [10] = system: barnyardgrass (Echinochloa crus-galli); experiment: Test C flooded paddy test: barnyardgrass; conditions: scale 0 to 100 (0 no effect, 100 complete control)
# How it was run: as §2
# [11] = Postemergence, 125 g ai/ha, 0 to 100 scale, 0 is no effect, 100 is complete control
# [12] = Postemergence, 500 g ai/ha, visual rating on 0 to 100 scale (0 no effect, 100 complete control), approximately ten days
# [13] = Preemergence, 125 g ai/ha, 0 to 100 scale (0 no effect, 100 complete control)
# [14] = Preemergence, 500 g ai/ha, 0 to 100 scale, 0 is no effect, 100 is complete control
# [15] = Flood (flooded paddy test), 62 g ai/ha, visual rating after 13 to 15 days
# [16] = Flood (flooded paddy test), 250 g ai/ha, visual rating after 13 to 15 days
# [17] = Postemergence, 1000 g ai/ha, visual rating on 0 to 100 scale (0 no effect, 100 complete control), approximately ten days
# [18] = Preemergence, 1000 g ai/ha, 0 to 100 scale, 0 is no effect, 100 is complete control
# [19] = Flood (flooded paddy test), 125 g ai/ha, visual rating after 13 to 15 days
smiles,measurement,setting,value
Cc1nn(-c2ccc(C(F)(F)F)cc2)nc1Cc1cnn(CC(F)(F)F)c1 [Compound 51],Barnyardgrass plant response rating,[1]; [11],0
same,Barnyardgrass plant response rating,[1]; [12],10
same,"Plant response rating, Barnyardgrass",[1]; [13],0
same,"Plant response rating, Barnyardgrass",[1]; [14],0
same,"Crabgrass, Large plant response rating",[2]; [11],0
same,"Crabgrass, Large plant response rating",[2]; [12],10
same,"Plant response rating, Crabgrass, Large",[2]; [13],0
same,"Plant response rating, Crabgrass, Large",[2]; [14],0
same,"Foxtail, Giant plant response rating",[3]; [11],0
same,"Foxtail, Giant plant response rating",[3]; [12],10
same,"Plant response rating, Foxtail, Giant",[3]; [13],0
same,"Plant response rating, Foxtail, Giant",[3]; [14],10
same,Morningglory plant response rating,[4]; [11],0
same,Morningglory plant response rating,[4]; [12],10
same,"Plant response rating, Morningglory",[4]; [13],0
same,"Plant response rating, Morningglory",[4]; [14],0
same,Pigweed plant response rating,[5]; [11],10
same,Pigweed plant response rating,[5]; [12],60
same,"Plant response rating, Pigweed",[5]; [13],0
same,"Plant response rating, Pigweed",[5]; [14],0
same,Velvetleaf plant response rating,[6]; [11],0
same,Velvetleaf plant response rating,[6]; [12],10
same,"Plant response rating, Velvetleaf",[6]; [13],0
same,"Plant response rating, Velvetleaf",[6]; [14],0
same,Wheat plant response rating,[7]; [11],0
same,Wheat plant response rating,[7]; [12],0
same,"Plant response rating, Wheat",[7]; [13],0
same,"Plant response rating, Wheat",[7]; [14],0
same,Corn plant response rating,corn (Zea mays); [11],0
same,Corn plant response rating,corn (Zea mays); [12],10
same,"Plant response rating, Corn",corn (Zea mays); [13],0
same,"Plant response rating, Corn",corn (Zea mays); [14],0
same,"Plant response rating, Rice",rice (Oryza sativa); [15],0
same,"Plant response rating, Rice",rice (Oryza sativa); [16],0
same,"Plant response rating, Sedge, Umbrella",[8]; [15],0
same,"Plant response rating, Sedge, Umbrella",[8]; [16],0
same,"Plant response rating, Ducksalad",[9]; [15],0
same,"Plant response rating, Ducksalad",[9]; [16],0
same,"Plant response rating, Barnyardgrass",[10]; [15],0
same,"Plant response rating, Barnyardgrass",[10]; [16],0
CCc1nn(-c2ccc(C(F)(F)F)cc2)nc1Cn1ccc(C(F)(F)F)n1 [Compound 118],Barnyardgrass plant response rating,[1]; [17],30
same,Barnyardgrass plant response rating,[1]; [18],70
same,"Crabgrass, Large plant response rating",[2]; [17],90
same,"Crabgrass, Large plant response rating",[2]; [18],100
same,"Foxtail, Giant plant response rating",[3]; [17],60
same,"Foxtail, Giant plant response rating",[3]; [18],100
same,Morningglory plant response rating,[4]; [17],100
same,Morningglory plant response rating,[4]; [18],20
same,Pigweed plant response rating,[5]; [17],100
same,Pigweed plant response rating,[5]; [18],100
same,Velvetleaf plant response rating,[6]; [17],70
same,Velvetleaf plant response rating,[6]; [18],10
same,Wheat plant response rating,[7]; [17],20
same,Wheat plant response rating,[7]; [18],10
same,Corn plant response rating,corn (Zea mays); [17],30
same,Corn plant response rating,corn (Zea mays); [18],20
same,"Plant response rating, Rice",rice (Oryza sativa); [19],15
same,"Plant response rating, Rice",rice (Oryza sativa); [16],20
same,"Plant response rating, Rice","rice (Oryza sativa); Flood, 31 g ai/ha",0
same,"Plant response rating, Rice","rice (Oryza sativa); Flood, 62 g ai/ha",0
same,"Plant response rating, Sedge, Umbrella",[8]; [19],70
same,"Plant response rating, Sedge, Umbrella",[8]; [16],75
same,"Plant response rating, Sedge, Umbrella","[8]; Flood, 31 g ai/ha",40
same,"Plant response rating, Sedge, Umbrella","[8]; Flood, 62 g ai/ha",65
same,"Plant response rating, Ducksalad",[9]; [19],70
same,"Plant response rating, Ducksalad",[9]; [16],70
same,"Plant response rating, Ducksalad","[9]; Flood, 31 g ai/ha",0
same,"Plant response rating, Ducksalad","[9]; Flood, 62 g ai/ha",30
same,"Plant response rating, Barnyardgrass",[10]; [19],50
same,"Plant response rating, Barnyardgrass",[10]; [16],65
same,"Plant response rating, Barnyardgrass","[10]; Flood, 31 g ai/ha",20
same,"Plant response rating, Barnyardgrass","[10]; Flood, 62 g ai/ha",30
